The record followed here is patent US20230398140A1, “OCULAR-TENSION-INCREASING AGENT CAPABLE OF BEING DEPRIVED OF DRUG ACTIVITY BY TEMPERATURE CONTROL” (UNIVERSITY OF YAMANASHI, priority 2020, published 2023).

The test system of the data set is White house rabbits. Particulars: rabbit, in vivo.

Method: White house rabbits (2 to 3.5 kg) were positioned with a positioner and ocular tension was measured by a handy tonometer (Icare TONOVET Plus, M.E, Technica) while they were kept awake, and then anesthetized with ketamine and xylazine (ketamine hydrochloride 60 mg/kg; Sankyo, Tokyo, Japan and xylazine 10 mg/kg; Bayer, Munich, Germany). Ocular tension was again measured, and eyeballs were observed by a microscope under anesthesia. Thereafter, 100 μL of 1 wt % POxMix was injected into the anterior chamber of just one of the eyes of each rabbit. Microscopic observation and tonometry were carried out immediately after injection, 30 minutes and 24 hours after anesthesia.

Regarding poly(2-propyl-2-oxazoline) [POx], the “cloudiness of eyeball after 24 hours” value is “deposited on the iris and lens surface with the passage of time and remained as a white sediment”; the “cloudiness of eyeball immediately after administration” value is “became cloudy”.
